In US20220220135A1 (BAR-ILAN UNIVERSITY, priority 2019, published 2022):
Like-named read-outs stand apart in the source and are kept apart here.

How the values were obtained:
[1] = target: T1, human NPP3 (Homo sapiens, UniProt O14638); assay: Inhibition of human NPP3, 100 μM p-Nph-5′-TMP as substrate (Tables 5, 7); type: biochemical; settings: 100 μM p-Nph-5′-TMP as a substrate
T1 sequence (O14638 1-875): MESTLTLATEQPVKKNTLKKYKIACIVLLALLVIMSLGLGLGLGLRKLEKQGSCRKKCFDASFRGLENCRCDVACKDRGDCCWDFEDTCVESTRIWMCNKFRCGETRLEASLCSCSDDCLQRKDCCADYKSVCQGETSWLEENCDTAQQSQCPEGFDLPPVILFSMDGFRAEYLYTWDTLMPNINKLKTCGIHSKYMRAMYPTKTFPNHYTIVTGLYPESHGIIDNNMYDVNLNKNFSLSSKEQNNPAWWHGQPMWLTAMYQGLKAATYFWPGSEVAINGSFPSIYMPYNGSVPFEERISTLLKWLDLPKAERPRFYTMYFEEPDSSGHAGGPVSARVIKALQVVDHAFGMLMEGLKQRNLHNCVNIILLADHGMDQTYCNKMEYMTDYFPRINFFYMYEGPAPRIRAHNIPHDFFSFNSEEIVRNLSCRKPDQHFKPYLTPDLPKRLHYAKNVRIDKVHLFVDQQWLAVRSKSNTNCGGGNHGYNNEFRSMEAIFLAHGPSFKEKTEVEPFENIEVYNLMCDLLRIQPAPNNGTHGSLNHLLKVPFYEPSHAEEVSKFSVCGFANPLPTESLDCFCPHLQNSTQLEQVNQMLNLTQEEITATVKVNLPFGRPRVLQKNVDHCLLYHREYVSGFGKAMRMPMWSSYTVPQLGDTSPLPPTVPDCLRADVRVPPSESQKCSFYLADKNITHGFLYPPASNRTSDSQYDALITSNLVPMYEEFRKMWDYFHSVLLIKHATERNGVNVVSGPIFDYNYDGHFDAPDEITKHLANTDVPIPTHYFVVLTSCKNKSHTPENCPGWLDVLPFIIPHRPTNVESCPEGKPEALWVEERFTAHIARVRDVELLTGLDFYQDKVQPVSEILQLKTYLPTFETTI

[2] = target: T2, Human CD39 (NTPDase1) (Homo sapiens, UniProt P49961); assay: Inhibition of human CD39 (NTPDase1), 100 μM ADP as substrate; type: biochemical; settings: 100 μM ADP as a substrate
T2 sequence (P49961 1-510): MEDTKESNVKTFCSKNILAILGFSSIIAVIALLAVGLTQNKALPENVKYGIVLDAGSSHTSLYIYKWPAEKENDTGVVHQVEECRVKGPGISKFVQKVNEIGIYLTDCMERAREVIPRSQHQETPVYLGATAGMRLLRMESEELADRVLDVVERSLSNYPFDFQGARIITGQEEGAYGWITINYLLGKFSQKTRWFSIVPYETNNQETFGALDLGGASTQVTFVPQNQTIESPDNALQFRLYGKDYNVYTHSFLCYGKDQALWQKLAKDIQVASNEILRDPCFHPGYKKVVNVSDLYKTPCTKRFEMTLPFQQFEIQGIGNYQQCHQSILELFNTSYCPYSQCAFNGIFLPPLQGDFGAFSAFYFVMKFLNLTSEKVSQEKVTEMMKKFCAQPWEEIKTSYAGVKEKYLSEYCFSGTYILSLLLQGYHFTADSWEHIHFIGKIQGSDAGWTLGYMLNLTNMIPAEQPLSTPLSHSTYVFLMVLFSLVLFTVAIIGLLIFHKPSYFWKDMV

[3] = target: T3, NPP1 (Homo sapiens, UniProt P22413); settings: literature value; cited from earlier work
T3 sequence (P22413 1-925): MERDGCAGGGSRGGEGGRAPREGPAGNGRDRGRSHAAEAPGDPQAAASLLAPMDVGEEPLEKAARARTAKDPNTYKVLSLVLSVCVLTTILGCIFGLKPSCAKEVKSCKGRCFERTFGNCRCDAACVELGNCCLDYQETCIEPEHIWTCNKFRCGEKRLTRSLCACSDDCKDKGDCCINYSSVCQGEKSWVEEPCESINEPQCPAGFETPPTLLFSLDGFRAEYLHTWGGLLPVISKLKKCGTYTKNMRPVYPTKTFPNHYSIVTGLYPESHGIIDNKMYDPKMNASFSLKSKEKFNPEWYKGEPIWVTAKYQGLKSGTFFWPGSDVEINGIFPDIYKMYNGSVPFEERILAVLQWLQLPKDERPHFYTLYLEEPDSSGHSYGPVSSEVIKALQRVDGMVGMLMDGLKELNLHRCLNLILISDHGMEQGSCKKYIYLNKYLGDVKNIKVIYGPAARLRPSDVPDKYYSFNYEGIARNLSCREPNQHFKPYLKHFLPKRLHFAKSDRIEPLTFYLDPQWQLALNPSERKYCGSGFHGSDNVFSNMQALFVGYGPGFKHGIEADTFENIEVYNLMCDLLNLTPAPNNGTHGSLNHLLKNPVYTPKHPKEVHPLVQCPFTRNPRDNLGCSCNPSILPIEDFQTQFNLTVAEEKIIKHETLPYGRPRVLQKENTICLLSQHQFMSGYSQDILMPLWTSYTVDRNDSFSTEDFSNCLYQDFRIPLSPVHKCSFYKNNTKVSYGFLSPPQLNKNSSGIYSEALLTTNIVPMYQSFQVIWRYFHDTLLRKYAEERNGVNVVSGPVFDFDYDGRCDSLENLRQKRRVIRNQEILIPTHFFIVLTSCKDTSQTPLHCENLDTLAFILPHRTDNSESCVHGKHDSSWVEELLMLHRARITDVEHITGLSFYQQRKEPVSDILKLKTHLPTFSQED

[4] = target: T4, Human CD73 (Homo sapiens, UniProt P21589); settings: literature value; cited from earlier work
T4 sequence (P21589 27-549): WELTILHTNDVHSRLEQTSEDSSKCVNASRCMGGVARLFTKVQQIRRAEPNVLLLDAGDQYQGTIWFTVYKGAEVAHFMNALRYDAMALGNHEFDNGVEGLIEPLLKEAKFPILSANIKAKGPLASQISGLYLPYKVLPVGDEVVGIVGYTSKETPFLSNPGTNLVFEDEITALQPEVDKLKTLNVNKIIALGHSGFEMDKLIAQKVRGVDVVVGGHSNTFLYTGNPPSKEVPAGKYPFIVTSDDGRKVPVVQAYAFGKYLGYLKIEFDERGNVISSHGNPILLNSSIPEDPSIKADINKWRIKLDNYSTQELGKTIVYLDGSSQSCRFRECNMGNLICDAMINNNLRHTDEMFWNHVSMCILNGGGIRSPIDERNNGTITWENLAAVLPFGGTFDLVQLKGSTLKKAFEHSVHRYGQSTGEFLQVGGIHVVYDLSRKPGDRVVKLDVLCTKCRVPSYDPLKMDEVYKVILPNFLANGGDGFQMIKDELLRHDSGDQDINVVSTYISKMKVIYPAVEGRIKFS

[5] = tested on: primary human chondrocytes; assay: Cell viability of primary human chondrocytes, XTT assay; type: cell-based; settings: cultured primary human chondrocytes, 0.1 mM
Procedure: FIG. 11: Analogs 20-28 are not toxic to primary human chondrocytes. Chondrocytes were incubated with analogs 20-28 at the indicated concentrations for 24 h, and then cell viability was assessed by the XTT assay;
FIG. 15: The effects of analogs 106-109 on primary human chondrocytes. (A) Analogs 106-109 inhibit NPPase activity in primary chondrocytes. NPPase activity was assayed by measuring the hydrolysis of the chromogenic substrate, pnp-TMP. […] Alkaline phosphatase activity was assayed by hydrolysis of p-nitrophenyl phosphate. (C) Analogs 106-109 are not toxic to cultured chondrocytes at a concentration of 0.1 mM. Cell viability was assessed by the XTT assay. Mean (columns) and SD (error bars) of triplicate cell culture experiments are shown.
A prerequisite for the application of inhibitors 20-28 as therapeutic agents is the lack of toxicity. For this purpose, primary human chondrocytes were cultured with analogs 20-28 at a high concentration of 1 mM for 24 h. Thereafter, cell viability was measured relative to untreated controls by the XTT assay and is represented on FIG. 11. No significant decrease in cell's viability was discernible at concentrations of up to 1 mM.

[6] = target: T3, NPP1; assay: Inhibition of human NPP1, 100 μM ATP as substrate (FIG. 9, Table 6); type: biochemical; settings: for inhibition at 10 µM: n = 3, read-out: % inhibition ± SEM at 10 μM, human NPP1
Procedure: Each experiment was performed in triplicates;

[7] = target: T3, NPP1; assay: Inhibition of human NPP1, 100 μM p-Nph-5′-TMP as substrate (Tables 5, 6); settings: for inhibition at 10 µM: read-out: % inhibition ± SEM at 10 μM, human NPP1
[8] = target: T1, human NPP3; settings: literature value; cited from earlier work
[9] = target: T2, Human CD39 (NTPDase1); settings: literature value; cited from earlier work
[10] = target: T5, human CD39 (Homo sapiens, UniProt P49961); assay: Inhibition of human CD39, 0.5 μM PSB-170621A as substrate; type: biochemical; settings: 0.5 μM PSB-170621A as a substrate; n = 3
T5 sequence (P49961 1-510): T2 sequence (P49961 1-510)

[11] = target: T6, human P2Y1R (Homo sapiens, UniProt P47900); assay: Calcium mobilization in 1321N1 astrocytoma cells expressing human P2Y1R; type: cell-based
T6 construct: expressed in transfected cells; host or cells: 1321N1 astrocytoma cells
Procedure: (§1) Given the structural resemblance of 106-109 to the natural ligands of P2Y receptors, adenine and uracil nucleotides as natural substrates, were assessed for agonist potency on the human P2Y1, P2Y2, P2Y4, and P2Y6 receptor. To evaluate NPP1 selectivity of analogs 106-109, they were tested for their ability to activate of the uridine-nucleotide sensitive human recombinant P2Y1,2,4,6-receptors. The agonist potencies of this series of nucleotide analogues on the Gq protein-coupled human P2Y1R, P2Y2R, P2Y4R, and P2Y6R was determined by assessing its ability to induce calcium mobilization in stably transfected 1321N1 astrocytoma cells (Table 8). The nucleotide analogues were found in calcium mobilization assays to activate the P2Y2R with mid-micromolar potency.

[12] = target: T7, human P2Y2R (Homo sapiens, UniProt P41231); assay: Calcium mobilization in 1321N1 astrocytoma cells expressing human P2Y2R; type: cell-based
T7 construct: expressed in transfected cells; host or cells: 1321N1 astrocytoma cells
Procedure: as §1

[13] = target: T8, human P2Y4R (Homo sapiens, UniProt P51582); assay: Calcium mobilization in 1321N1 astrocytoma cells expressing human P2Y4R; type: cell-based
T8 construct: expressed in transfected cells; host or cells: 1321N1 astrocytoma cells
Procedure: as §1

[14] = target: P2Y6R (Homo sapiens, UniProt Q15077); assay: Calcium mobilization in 1321N1 astrocytoma cells expressing human P2Y6R; type: cell-based; set-up: expressed in transfected cells; host or cells: 1321N1 astrocytoma cells (stably transfected)
Procedure: as §1

[15] = 10 μM, inactive = no inhibition at 10 μM

T6 sequence (P47900 whole entry): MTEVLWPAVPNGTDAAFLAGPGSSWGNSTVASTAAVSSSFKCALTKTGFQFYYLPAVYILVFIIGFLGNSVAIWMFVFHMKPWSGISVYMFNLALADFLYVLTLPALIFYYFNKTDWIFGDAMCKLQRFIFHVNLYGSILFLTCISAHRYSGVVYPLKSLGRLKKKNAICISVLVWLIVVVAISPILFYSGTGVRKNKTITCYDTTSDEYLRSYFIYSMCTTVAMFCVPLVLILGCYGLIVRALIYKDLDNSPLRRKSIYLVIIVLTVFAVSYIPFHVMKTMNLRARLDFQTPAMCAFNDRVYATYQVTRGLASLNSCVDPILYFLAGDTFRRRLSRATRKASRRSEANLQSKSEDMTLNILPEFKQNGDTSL
T8 sequence (P51582 whole entry): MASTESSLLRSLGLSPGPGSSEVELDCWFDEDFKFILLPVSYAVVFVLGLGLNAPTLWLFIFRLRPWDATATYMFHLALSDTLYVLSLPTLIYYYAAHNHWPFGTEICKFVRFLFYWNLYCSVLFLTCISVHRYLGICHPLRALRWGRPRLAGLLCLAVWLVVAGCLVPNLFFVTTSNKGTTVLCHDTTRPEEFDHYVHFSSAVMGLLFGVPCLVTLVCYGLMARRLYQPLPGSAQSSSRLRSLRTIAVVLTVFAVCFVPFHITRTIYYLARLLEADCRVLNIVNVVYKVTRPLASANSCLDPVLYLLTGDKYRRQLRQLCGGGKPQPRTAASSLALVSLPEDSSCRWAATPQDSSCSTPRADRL
P2Y6R, sequence (Q15077 whole entry): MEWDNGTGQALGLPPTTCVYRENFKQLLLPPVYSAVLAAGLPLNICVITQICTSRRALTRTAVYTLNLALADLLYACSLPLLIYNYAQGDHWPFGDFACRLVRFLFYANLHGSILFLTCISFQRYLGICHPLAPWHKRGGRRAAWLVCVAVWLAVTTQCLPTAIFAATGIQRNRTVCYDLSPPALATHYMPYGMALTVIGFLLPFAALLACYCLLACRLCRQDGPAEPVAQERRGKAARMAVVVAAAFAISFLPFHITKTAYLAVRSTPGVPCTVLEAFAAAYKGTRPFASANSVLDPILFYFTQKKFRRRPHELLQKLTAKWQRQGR
T7 sequence (P41231 whole entry): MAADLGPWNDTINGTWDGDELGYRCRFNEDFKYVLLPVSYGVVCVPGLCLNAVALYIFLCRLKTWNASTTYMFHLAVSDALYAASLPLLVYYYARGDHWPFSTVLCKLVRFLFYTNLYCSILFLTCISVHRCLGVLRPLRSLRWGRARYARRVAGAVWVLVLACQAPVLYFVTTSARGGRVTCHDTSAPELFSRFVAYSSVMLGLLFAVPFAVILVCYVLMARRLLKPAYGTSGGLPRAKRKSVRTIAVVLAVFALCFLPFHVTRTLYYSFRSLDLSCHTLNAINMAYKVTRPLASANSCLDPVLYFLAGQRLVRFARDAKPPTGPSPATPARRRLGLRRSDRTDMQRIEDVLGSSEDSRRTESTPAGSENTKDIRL

Compound | cell viability (XTT), toxicity [5] | inhibition at 10 µM ([6]; ATP (100 μM) as a substrate) | % activation at 10 μM, P2Y1 [11] | % activation at 10 μM, P2Y2 [12] | % activation at 10 μM, P2Y4 [13] | Ki [7] | inhibition at 10 µM [7] | % activation at 10 μM, P2Y6 [14] | also measured
Nc1ncnc2c1ncn2[C@@H]1O[C@H](COP(=O)(O)CP(=O)(O)O)[C@@H](O)[C@H]1O [AOPCP, reference compound] |  |  |  |  |  |  |  |  | % inhibition ± SD at 10 μM, Human NPP3 [1, 15]: inactived; % inhibition ± SD at 10 μM, Human CD39 (NTPDase1) [2, 15]: 12 ± 5%; Ki ([2]; read-out: Ki ± SD (μM), Human CD39 (NTPDase1)): > 10 µM; Ki [3]: 1.28 to 16.5 µM; Ki [4]: 0.197 µM
Nc1ncnc2c1ncn2COCCOP(=S)(S)OP(=O)(O)O (stereo not drawn) [Analogue 106] | slightly increase cell survival |  |  |  |  |  |  |  | 
Nc1ncnc2c1ncn2COCCOP(=S)(S)OP(=O)(O)OP(=O)(O)O (stereo not drawn) [Analogue 107] | slightly increase cell survival |  |  |  |  |  |  |  | inhibition type (Lineweaver-Burk plot) ([6]; vs ATP, α value of ~1): non-competitive inhibition; inhibition type (Lineweaver-Burk plot) ([7]; vs p-Nph-5′-TMP, […]): non-competitive inhibition
Nc1ncnc2c1ncn2COCCOP(=S)(S)OP(=O)(O)C(Cl)(Cl)P(=O)(O)O (stereo not drawn) [Analogue 109] | slightly increase cell survival |  |  |  |  |  |  |  | 
Nc1c(S(=O)(=O)O)cc(Nc2ccc(Nc3nc(Cl)nc(Nc4cccc(S(=O)(=O)O)c4)n3)c(S(=O)(=O)O)c2)c2c1C(=O)c1ccccc1C2=O [Reactive Blue 2] |  |  |  |  |  |  |  |  | Ki [3]: 0.52 µM; Ki [8]: 0.71 µM; Ki [9]: 20 µM; Ki [4]: 3.07 µM
Cc1ccc(C(=O)Nc2ccc(S(=O)(=O)O)c3cc(S(=O)(=O)O)cc(S(=O)(=O)O)c23)cc1NC(=O)c1cccc(NC(=O)Nc2cccc(C(=O)Nc3cc(C(=O)Nc4ccc(S(=O)(=O)O)c5cc(S(=O)(=O)O)cc(S(=O)(=O)O)c45)ccc3C)c2)c1 [Suramin] |  |  |  |  |  |  |  |  | Ki [9]: 300 µM
Nc1ncnc2c1ncn2COCCOP(=S)(S)OP(=O)(O)OP(=O)(O)O (stereo not drawn) [compound 107] |  | 66 ± 1% | −1 ± 1% | 39 ± 13% | −2 ± 2% | 1.98 µM | 74 ± 1% | −5 ± 3% | Ki ([6]; ATP (100 μM) as a substrate, read-out: Ki (μM ± SD), human NPP1 (converted)): 0.334 µM; % inhibition ± SEM, human NPP3 ([1]; n = 3): 17 ± 1%; % inhibition ± SEM, human CD39 [10]: 28 ± 1%
Nc1ncnc2c1ncn2COCCOP(=S)(S)OP(=O)(O)CP(=O)(O)O (stereo not drawn) [compound 108] |  | 16 ± 3% | 0 ± 1% | 44 ± 9% | −2 ± 1% | 2.16 µM | 65 ± 1% | −8 ± 2% | 
Nc1ncnc2c1ncn2COCCOP(=S)(S)OP(=O)(O)C(Cl)(Cl)P(=O)(O)O (stereo not drawn) [compound 109] |  | 37 ± 1% | −2 ± 1% | 21 ± 5% | 0 ± 2% | 0.698 µM | 85 ± 2% | 2 ± 4% | 
